Data reported in patent US12594354B2, “Compositions for visualization of cleaning efficacy and product coverage” (priority 2011, dated 2026).
Counter-ions that a name gives are not always drawn.

Experiments:
Format in all cases: physicochemical
[1] = Visible fluorescence under short (254 nm) and long (360 nm) ultraviolet light; details: in distilled water; visually in dark, 9 watt UV lamp at 6 inches
Description: All three tracer substances Riboflavin, Folic Acid and Quinine have unique molecular structures that enable them to mix into base solutions with varying polar and non polar charges. Studies by the authors of the current embodiment have also shown that the substances show an affinity for organic matter residue (e.g. proteins, fats, oils, soil, mineral deposits, etc.). Riboflavin (B2),Folic Acid (B9) and Quinine are approved food additives (Codex General Standard for Food Additives, Codex STAN 192; Code of Federal Regulations Title 21 Sec. 184.1695; Sec. 73.450; Sec. 104.20, Sec. 101.9 and Sec. 172.575). […] Experiments by the inventors have shown that when Riboflavin and Quinine are combined in solution the two GRAS or food additive fluorophores fluoresce synergistically under long and short wave ultraviolet light. [table]

[2] = Detection sensitivity of tracers by UV fluorescence and spectrophotometer; details: for sensitivity of spectrophotometer absorption and transmission detection: tracers vs control samples
Description: One method of detecting the presence of the food grade vitamin tracer(s) is by exciting the mixture, treated area or sample swab with ultraviolet light so that the vitamins fluoresce. Riboflavin fluorescence is the identifier for visual observations. Folic Acid fluoresces, but not in the visible spectrum. The color of light is related to the wavelength or frequency of the light. Visible light—to which our eyes are most sensitive—falls in the wavelength range of about 400 to 750 nm. In the absence of visible light and when Riboflavin is excited by long-wave ultraviolet light (maximum lambda=˜365 nm-below the visible spectrum) Riboflavin emits/fluoresces light waves in the visible spectrum (˜450 to 650) which are very distinguishable in the dark when the only other light source is from long (˜365 nm) and midrange (˜312 nm) ultraviolet light. This phenomenon enables visible detection of Riboflavin at levels as low as 1 ppm. It is well know that different compounds have unique absorption and transmission spectra. Another method of quantifying the presence of the food grade vitamin tracers Riboflavin and Folic Acid is by use of a spectrophotometer whereby wavelength absorption and transmission results of known tracers Vs control samples provide characteristic spectra analysis that can be used to determine the absence or presence with sensitivity down to 1 ppm.

[3] = Riboflavin fluorescence persistence in sanitizer and bleach base materials
Description: FIG. 3 is a flow chart showing how the GRAS or food additive composition is mixed with sanitizer(s) or cleaning chemical(s) for visualization of cleaning efficacy so those trained in the art can validate or verify the hygienic condition of equipment or environments after cleaning. The steps involved with making the combined fluorescent additive and base material invention solution include; (1) select the base material and the specific volume that will be used for the application. It is important to know the composition of the base material, its physical properties and establish a set volume. For purposes of this embodiment, base material can be potable water or any of the various sanitation chemicals that has been approved for use in the food, beverage, pharmaceutical, feed industry by appropriate regulatory authorities. The base material will be approximately 95% of the total end product. Potable tap water is an excellent base material for combining with the embodiment composition to produce a solution that can be applied to equipment at any stage of the cleaning process prior final rinse. Quat sanitizers, liquid soaps and detergents have also been shown by the authors to be excellent base materials. Riboflavin mixed easily into solution when 1,000 ppm was added to KayQuat II (>1,000 ppm quaternary ammonia). Fluorescence was intense from day one through day 270 and has not diminished at the time of this publication. Similar tests were performed on Ajax Liquid Soap with Bleach Alternative with similar results.
It should be noted that bench top studies with concentrate hypochlorite solutions have been shown by the authors to rapidly quench Riboflavin fluorescence. […] Highly alkaline ammonia base material produced similar results. The authors were concerned that chlorinated alkaline detergents and/or foaming cleaners would quench the fluorescence of the embodiment composition so tests were performed to determine the effect.

[4] = 2,500 ppm added to a 30% solution of chlorine bleach

| Compound | Visual Fluorescence Long Wave (360 nm) [1] | Visual Fluorescence Short Wave (254 nm) [1] | sensitivity of spectrophotometer absorption and transmission detection [2] [ppm] | visible detection level ([2]; excited by long (~365 nm) and midrange (~312 nm) UV in the dark) [ppm] | Fluorescence from day one through day 270 ([3]; 1,000 ppm added to KayQuat II (>1,000 ppm quaternary ammonia)) | fluorescence after 8 hours [3, 4] | fluorescence observed for up to 4 hours [3, 4] |
| --- | --- | --- | --- | --- | --- | --- | --- |
| Cc1cc2nc3c(=O)[nH]c(=O)nc-3n(C[C@H](O)[C@H](O)[C@H](O)CO)c2cc1C [50 ppm Riboflavin USP in distilled water, Riboflavin] | Moderate | Very Slight |  |  |  |  |  |
| Nc1nc2ncc(CNc3ccc(C(=O)N[C@@H](CCC(=O)O)C(=O)O)cc3)nc2c(=O)[nH]1 [Folic Acid] |  |  | 1 |  |  |  |  |
| C=C[C@H]1C[N@@]2CC[C@H]1C[C@H]2[C@H](O)c1ccnc2ccc(OC)cc12 [Quinine Sulfate, Dihydrate] | Moderate | Slight |  |  |  |  |  |
| Cc1cc2nc3c(=O)[nH]c(=O)nc-3n(C[C@H](O)[C@H](O)[C@H](O)CO)c2cc1C [Riboflavin] |  |  | 1 | 1 | intense | diminished completely | Slight |
